In US20220195379A1, “METHOD OF TESTTING INHIBITORY EFFECT OF CARBON DIOXIDE ON SPOILAGE CAUSING ABILITY OF SHEWANELLA PUTREFACIENS” (Shanghai Ocean University, priority 2022, published 2022):

System: Shewanella putrefaciens
Experiment: Inhibitory effect of CO2 on growth and spoilage causing ability, inoculated fillets in modified atmosphere packaging
Settings: stored in the presence of CO2, versus control group
Procedure: Pre-frozen Shewanella putrefaciens (stored at −80° C. or less) was thawed at 30±2° C., inoculated to 5-10 mL of TSB, and cultured under shaking for 12 h to obtain a primary culture solution.
The primary culture solution was inoculated into another TSB liquid medium at an inoculation amount of 1% by weight, which was cultured under shaking for 6 h to obtain a bacterial suspension with a concentration of 10^7 CFU/mL.
A large yellow croaker with a weight of 1000±50 g was processed, and cut into a plurality of 100-g slices, which were washed with 0-4° C. water, and dried to prepare a plurality of samples. The large yellow croaker was oxygenated in a foam box during the transportation, and processed by bloodletting, evisceration, and head removal.
The samples were immersed into a 75% ethanol solution for 30 s, washed with sterile distilled water 3 times, and subjected to ultraviolet sterilization for 20 min to obtain a plurality of sterilized samples, where a mass ratio of the ethanol solution to the samples was 3:1. The bacterial suspension was diluted to a concentration of 10^4 CFU/mL, and inoculated to the sterilized samples to obtain a plurality inoculated samples, where the diluted bacterial suspension was 10% by weight of each sterilized sample such that a bacterial concentration of each sterilized sample was lower than or equal to 10^5 CFU/mL. […]

O=C=O [CO2, carbon dioxide]
Growth and reproduction rate of the Shewanella putrefaciens: significantly lower than that of the control group
